Source: PubChem BioAssay AID623861 (Sanford-Burnham Center for Chemical Genomics, 2012)
Calls of active or inactive are those of the source.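 How the source made its calls: active means compounds whose EC50 for boosting single-cell stem cell survival is at or below a set limit; inactive means the rest.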

system: human iPSC single-cell survival, ATP luminescence; test: enhancers of single-cell hiPSC survival, dose response, luminescence (AID 623861)

Structure (SMILES)	EC50
Cc1ccsc1C(=O)OCC(=O)Nc1sccc1C(N)=O	> 80 µM (inactive)
CCCn1c(SCc2ccccc2)nc2c1c(=O)[nH]c(=O)n2C	> 80 µM (inactive)
Cc1ccc(NS(=O)(=O)c2ccc3c(c2)CC(=O)N3)c(C)c1	> 80 µM (inactive)
CCCNC(=O)COC(=O)c1ccccc1C(=O)c1ccc(Cl)c([N+](=O)[O-])c1	47.1 µM (inactive)
O=C1/C(=C/c2ccncc2)CCC/C1=C\c1ccncc1	10.1 µM
CCCCCCC[C@@H](C/C=C/CCC(=O)N(C)C/C(=C/Cl)C/C(=C\C(=O)N1CC(OC)=CC1=O)OC)OC	1.11 µM
CN(C(=O)COC(=O)c1nc(Cl)c(Cl)c(Cl)c1Cl)C1CCS(=O)(=O)C1 (stereo not drawn)	31.1 µM (inactive)
COc1ccccc1Sc1nc(-c2ccccn2)ncc1OC	40.8 µM (inactive)
CCCc1nc(SCC(=O)Nc2nc3c(s2)CCCC3)c2ccccc2n1	> 80 µM (inactive)
O=C(NCC1CC1)c1ccc(-c2cn[nH]c2)c2ccoc12	13.1 µM
COC(=O)C1=C(C)N(C)C(C)=C(C(=O)OC)C1c1cccc(Br)c1	> 80 µM (inactive)
CC(OC(=O)c1ccc(S(C)(=O)=O)c([N+](=O)[O-])c1)C(=O)NC1C2CC3CC(C2)CC1C3 (stereo not drawn)	> 80 µM (inactive)
CN(C)CCN(C(=O)c1ccc2ccccc2c1)c1nc2cc3c(cc2s1)OCO3	> 80 µM (inactive)
COc1ccc(C(C#N)(CC(=O)O)c2cnccn2)cc1OC (stereo not drawn)	> 80 µM (inactive)
CC(OC(=O)c1ccc2c(=O)n3c(nc2c1)CCC3)C(=O)Nc1ccc(C(N)=O)cc1 (stereo not drawn)	55.6 µM (inactive)
C=C1[C@@H](C)[C@H]2[C@H](Cc3ccccc3)NC(=O)[C@]23OC(=O)/C=C/[C@H](O)CCC[C@@H](C)C/C=C/[C@H]3[C@@H]1O	21.7 µM (inactive)
C=C1C(=O)O[C@@H]2C[C@@H](C)[C@@H]3C=CC(=O)[C@@]3(C)[C@@H](O)[C@H]12	7.88 µM
CCOC(=O)C(=O)/C(=C\N(C)C)c1onc(-c2c(F)cccc2Cl)c1C(=O)OC	> 80 µM (inactive)
COc1ccc(CN(C)CCCn2cnc3c(OC)ncnc32)cc1OC	> 80 µM (inactive)

Structure (SMILES)	EC50
CC(C)(C)NC(=O)Cn1nnc(-c2ccccc2NC(=O)c2cnccn2)n1	10.8 µM
C1CCN(c2nc3nonc3nc2N2CCCC2)C1	> 80 µM (inactive)
CCC(C(=O)Nc1ccc2[nH]ncc2c1)c1ccccc1 (stereo not drawn)	9.45 µM
CN(Cc1ccccc1)C(=O)CN1CCN(S(=O)(=O)c2ccccc2F)CC1	> 80 µM (inactive)
COc1cccc(C2CC(=O)N3CN(c4cccc(Cl)c4C)CSC3=C2C#N)c1OC (stereo not drawn)	> 80 µM (inactive)
CCS(=O)(=O)c1ncc(Cl)c(C(=O)Nc2ccc(S(=O)(=O)N3CCCC(C)C3)cc2)n1 (stereo not drawn)	> 80 µM (inactive)
CN1C/C(=C/c2cccnc2)C(=O)/C(=C/c2cccnc2)C1	13.7 µM
CC(OC(=O)c1ccc(S(=O)(=O)N2CCCCC2)cc1)C(=O)Nc1ccc(C(N)=O)cc1 (stereo not drawn)	8.72 µM
CC(C)CCNC(=O)c1onc(CSc2ccc(F)cc2)c1C(=O)NCCC(C)C	> 80 µM (inactive)
COc1ccc2c(c1)c1ccc3c(c1n2C)C(=O)C=CC3=O	> 80 µM (inactive)
CCOCCCNC(=O)/C(C#N)=C/c1ccc([N+](=O)[O-])o1	53.1 µM (inactive)
COC(=O)[C@]1(Cc2ccccc2)N[C@H](CN(C)C(=O)Nc2ccccc2)[C@@H]2C(=O)N(C)C(=O)[C@@H]21	> 80 µM (inactive)
C=C1C(=O)OC2CC(C)C3C=CC(=O)C3(C)C(O)C12 (stereo not drawn)	9.47 µM
O=C(Nc1ccncc1)c1ccccc1[N+](=O)[O-]	52.6 µM (inactive)
CCCOC(=O)C1NC(=O)N2C(C(=O)OCCC)C(C)(C)S[C@H]12 (stereo partly drawn)	> 80 µM (inactive)
Cn1cnnc1SCC(=O)c1ccc2c(c1)OCO2	> 80 µM (inactive)
CCn1c(Cl)c(C=O)s/c1=N\S(=O)(=O)c1ccccc1	24.8 µM (inactive)
CC(C)CC1Nc2ncnc(N3CCN(c4ccccc4)CC3)c2N(Cc2ccccc2)C1=O (stereo not drawn)	> 80 µM (inactive)
CC1(C)Cc2c(C#N)c(SCC(=O)c3ccccc3)nc(N3CCOCC3)c2CS1	13.4 µM
